Source: patent US20250163066A1, “PROTACs of MALT1” (TEGID THERAPEUTICS, INC., priority 2022, published 2025)

Molecular target: MALT1 (Homo sapiens (Human), UniProt Q9UDY8)
Test: MALT1 enzymatic activity inhibition (fluorescence, Ac-LRSR-AMC substrate)
Format: biochemical
Settings: recombinant MALT1 1.5 ng/μl, Ac-LRSR-AMC 1 μM
Experimental: Compound activity was determined using recombinant MALT1 protein (Creative Biomart, Cat #MALT1-28H) and Ac-LRSR-AMC Substrate in an in vitro enzymatic reaction. The enzymatic assay used to determine activity was a Fluorescence assay using a Microplate Reader ClarioStar Plus. The enzymatic reaction was carried out in 1× Assay Buffer (50 mM HEPES pH 7.2-7.4, 100 mM NaCl, 900 mM Sodium citrate, 10 mM DTT). The compounds were dispensed on a 384-well Diamond Well Plate (Axygen, Cat #P-384-120SQ-C—S) using the Biomek FX liquid handling system at 100× solutions of compounds in DMSO. 2.5×MALT1 mix (final concentration 1.5 ng/μl of MALT1) was prepared in 1× Assay Buffer and 8 μl of mixture per well were added into 384w white Reaction Plates with NBS (Corning, Cat #4513). 8 μl of 1× Assay Buffer were used for negative control. Plates were centrifuged for 1 min at 200 g. Next, the compounds were added to Reaction plates using Biomek station via following steps: 1 μl of 100× compounds (in DMSO) was mixed thoroughly with 19 μl of 1× Assay Buffer, then 4 μl of this mixture were added to Reaction plates with 8 μl of MALT1 mix. Plates were centrifuged for 1 min at 200 g and incubated for 10 minutes at rt. Next, 2.5× Ac-LRSR-AMC mix (final concentration 1 μM of Ac-LRSR-AMC) was prepared in 1× Assay Buffer and 8 μl of mixture per well were added to Reaction Plates using Biomek station. Plates were centrifuged for 1 min at 200 g, then the fluorescence was measured immediately using Microplate Reader. Plates were incubated for 30 minutes at 37° C., then for 30 minutes at rt. The fluorescence was measured after the whole incubation using Microplate Reader. The reaction signal was calculated as the subtraction of the first data set values from the second. The % inhibition was then used to calculate the IC50 values. The results of this assay are shown in the Table A. The values of EC50 shown as a letters A-E, where: A≤0.2 μM; 0.2 μM<B≤0.5 μM; 0.5 μM<C≤1 μM; 1<D≤5 μM; E >5.

Chain of MALT1 (Q9UDY8 whole entry): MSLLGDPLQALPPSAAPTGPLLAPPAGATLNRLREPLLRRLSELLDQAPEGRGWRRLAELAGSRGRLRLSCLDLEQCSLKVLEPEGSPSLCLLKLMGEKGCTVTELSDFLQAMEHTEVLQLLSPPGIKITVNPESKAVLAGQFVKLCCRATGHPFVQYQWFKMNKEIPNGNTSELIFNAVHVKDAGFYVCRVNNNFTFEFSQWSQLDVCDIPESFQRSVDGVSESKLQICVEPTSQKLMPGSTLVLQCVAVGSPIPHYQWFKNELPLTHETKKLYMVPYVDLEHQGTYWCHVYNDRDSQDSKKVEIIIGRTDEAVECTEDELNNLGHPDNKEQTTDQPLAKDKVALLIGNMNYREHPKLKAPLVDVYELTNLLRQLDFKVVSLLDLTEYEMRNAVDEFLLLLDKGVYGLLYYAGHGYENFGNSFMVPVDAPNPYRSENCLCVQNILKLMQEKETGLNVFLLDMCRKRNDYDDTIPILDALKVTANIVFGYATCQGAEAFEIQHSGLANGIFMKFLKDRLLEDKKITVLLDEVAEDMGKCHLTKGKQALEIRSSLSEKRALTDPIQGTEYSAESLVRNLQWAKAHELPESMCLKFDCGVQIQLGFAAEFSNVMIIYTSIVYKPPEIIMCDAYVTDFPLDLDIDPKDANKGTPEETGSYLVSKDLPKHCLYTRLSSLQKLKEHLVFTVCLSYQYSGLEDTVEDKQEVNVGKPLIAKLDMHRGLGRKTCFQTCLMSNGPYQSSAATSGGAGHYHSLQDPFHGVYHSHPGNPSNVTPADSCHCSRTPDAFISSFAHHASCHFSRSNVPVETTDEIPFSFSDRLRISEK

Structure (SMILES) | EC50 [µM]
O=C1CCC(N2Cc3cc(N4CCN(CCCCc5nc(-c6ncc(NC(=O)Nc7cnc8ccnn8c7C7CCCC7)cc6Cl)no5)CC4)ccc3C2=O)C(=O)N1 (stereo not drawn) [Compound 75, 1-[5-chloro-6-[5-[4-[4-[2-(2,6-dioxo-3-piperidyl)-1-oxo-isoindolin-5-yl]piperazin-1-yl]butyl]-1,2,4-oxadiazol-3-yl]-3-pyridyl]-3-(7-cyclopentylpyrazolo[1,5-a]pyrimidin-6-yl)urea] | ≤ 0.2
O=C(CCOCCN1CCN(c2ccc3c(c2)CN(C2CCC(=O)NC2=O)C3=O)CC1)NCCOc1ncc(Cl)cc1NC(=O)Nc1cn2ccnc2nc1C1CCCCC1 (stereo not drawn) [Compound 50, N-[2-[[5-chloro-3-[(7-cyclohexylimidazo[1,2-a]pyrimidin-6-yl)carbamoylamino]-2-pyridyl]oxy]ethyl]-3-[2-[4-[2-(2,6-dioxo-3-piperidyl)-1-oxo-isoindolin-5-yl]piperazin-1-yl]ethoxy]propanamide] | 1 to 5
Cc1cc(NC(=O)Nc2cnc3ccnn3c2C(C)C)cnc1-c1nnc(CCCCC(=O)N2CCN(c3ccc4c(c3)CN(C3CCC(=O)NC3=O)C4=O)CC2)s1 (stereo not drawn) [Compound 154, 1-[6-[5-[5-[4-[2-(2,6-dioxo-3-piperidyl)-1-oxo-isoindolin-5-yl]piperazin-1-yl]-5-oxo-pentyl]-1,3,4-thiadiazol-2-yl]-5-methyl-3-pyridyl]-3-(7-isopropylpyrazolo[1,5-a]pyrimidin-6-yl)urea] | 0.2 to 0.5
COc1cc(-c2c(NC(=O)Nc3cnc(-n4cc(C(=O)NCCOCCOCCC(=O)N5CCN(c6ccc7c(c6)CN(C6CCC(=O)NC6=O)C7=O)CC5)cn4)c(C)c3)cnc3ccnn23)cc(OC)c1OC (stereo not drawn) [Compound 28, N-[2-[2-[3-[4-[2-(2,6-dioxo-3-piperidyl)-1-oxo-isoindolin-5-yl]piperazin-1-yl]-3-oxo-propoxy]ethoxy]ethyl]-1-[3-methyl-5-[[7-(3,4,5-trimethoxyphenyl)pyrazolo[1,5-a]pyrimidin-6-yl]carbamoylamino]-2-pyridyl]pyrazole-4-carboxamide] | > 5
O=C1CCC(N2Cc3cc(N4CCN(C(=O)CCCCc5nc(-c6ncc(NC(=O)Nc7cnc8ccnn8c7C7CC7)cc6Cl)no5)CC4)ccc3C2=O)C(=O)N1 (stereo not drawn) [Compound 160, 1-[5-chloro-6-[5-[5-[4-[2-(2,6-dioxo-3-piperidyl)-1-oxo-isoindolin-5-yl]piperazin-1-yl]-5-oxo-pentyl]-1,2,4-oxadiazol-3-yl]-3-pyridyl]-3-(7-cyclopropylpyrazolo[1,5-a]pyrimidin-6-yl)urea] | ≤ 0.2
Cc1cc(NC(=O)Nc2cnc3ccnn3c2C2CCCO2)cnc1-n1cc(C(=O)NCCOCCOCCC(=O)N2CCN(c3ccc4c(c3)CN(C3CCC(=O)NC3=O)C4=O)CC2)cn1 (stereo not drawn) [Compound 33, N-[2-[2-[3-[4-[2-(2,6-dioxo-3-piperidyl)-1-oxo-isoindolin-5-yl]piperazin-1-yl]-3-oxo-propoxy]ethoxy]ethyl]-1-[3-methyl-5-[(7-tetrahydrofuran-2-ylpyrazolo[1,5-a]pyrimidin-6-yl)carbamoylamino]-2-pyridyl]pyrazole-4-carboxamide] | 1 to 5
CC(C)c1c(NC(=O)Nc2ccc(-c3nnc(CCCCCC(=O)N4CCN(c5ccc6c(c5)CN(C5CCC(=O)NC5=O)C6=O)CC4)s3)nc2)cnc2ccnn12 (stereo not drawn) [Compound 129, 1-[6-[5-[6-[4-[2-(2,6-dioxo-3-piperidyl)-1-oxo-isoindolin-5-yl]piperazin-1-yl]-6-oxo-hexyl]-1,3,4-thiadiazol-2-yl]-3-pyridyl]-3-(7-isopropylpyrazolo[1,5-a]pyrimidin-6-yl)urea] | 1 to 5
Cc1cc(NC(=O)Nc2cnc3ccnn3c2C(C)C)cnc1-c1noc(CCCCCC(=O)N2CCN(c3ccc4c(c3)CN(C3CCC(=O)N(C)C3=O)C4=O)CC2)n1 (stereo not drawn) [Compound 146, 1-(7-isopropylpyrazolo[1,5-a]pyrimidin-6-yl)-3-[5-methyl-6-[5-[6-[4-[2-(1-methyl-2,6-dioxo-3-piperidyl)-1-oxo-isoindolin-5-yl]piperazin-1-yl]-6-oxo-hexyl]-1,2,4-oxadiazol-3-yl]-3-pyridyl]urea] | ≤ 0.2
O=C(CCOCCN1CCN(c2ccc3c(c2)CN(C2CCC(=O)NC2=O)C3=O)CC1)NCCOc1ncc(Cl)cc1NC(=O)Nc1cnc2ccnn2c1C1CCOC1 (stereo not drawn) [Compound 39, N-[2-[[5-chloro-3-[(7-tetrahydrofuran-3-ylpyrazolo[1,5-a]pyrimidin-6-yl)carbamoylamino]-2-pyridyl]oxy]ethyl]-3-[2-[4-[2-(2,6-dioxo-3-piperidyl)-1-oxo-isoindolin-5-yl]piperazin-1-yl]ethoxy]propanamide] | 0.5 to 1
Cc1cc(NC(=O)Nc2cnc3ccnn3c2C2CCCCC2)cnc1-c1noc(CCCCN2CCN(c3ccc4c(c3)CN(C3CCC(=O)NC3=O)C4=O)CC2)n1 (stereo not drawn) [Compound 141, 1-(7-cyclohexylpyrazolo[1,5-a]pyrimidin-6-yl)-3-[6-[5-[4-[4-[2-(2,6-dioxo-3-piperidyl)-1-oxo-isoindolin-5-yl]piperazin-1-yl]butyl]-1,2,4-oxadiazol-3-yl]-5-methyl-3-pyridyl]urea] | 0.2 to 0.5
CC(C)c1c(NC(=O)Nc2ccc(-c3nnc(CCCCCCN4CCN(c5ccc6c(c5)CN(C5CCC(=O)NC5=O)C6=O)CC4)s3)nc2)cnc2ccnn12 (stereo not drawn) [Compound 142, 1-[6-[5-[6-[4-[2-(2,6-dioxo-3-piperidyl)-1-oxo-isoindolin-5-yl]piperazin-1-yl]hexyl]-1,3,4-thiadiazol-2-yl]-3-pyridyl]-3-(7-isopropylpyrazolo[1,5-a]pyrimidin-6-yl)urea] | 1 to 5
O=C(CCOCCOCCN1CCN(c2ccc3c(c2)CN(C2CCC(=O)NC2=O)C3=O)CC1)NCCOc1ncc(Cl)cc1NC(=O)Nc1cnc2ccnn2c1C1CCCO1 (stereo not drawn) [Compound 32, N-[2-[[5-chloro-3-[(7-tetrahydrofuran-2-ylpyrazolo[1,5-a]pyrimidin-6-yl)carbamoylamino]-2-pyridyl]oxy]ethyl]-3-[2-[2-[4-[2-(2,6-dioxo-3-piperidyl)-1-oxo-isoindolin-5-yl]piperazin-1-yl]ethoxy]ethoxy]propanamide] | 1 to 5
Cc1cc2ncc(NC(=O)Nc3cnc(-c4noc(CCCCCN5CCN(c6ccc7c(c6)CN(C6CCC(=O)NC6=O)C7=O)CC5)n4)c(C)c3)c(C3CCCO3)n2n1 (stereo not drawn) [Compound 85, 1-[6-[5-[5-[4-[2-(2,6-dioxo-3-piperidyl)-1-oxo-isoindolin-5-yl]piperazin-1-yl]pentyl]-1,2,4-oxadiazol-3-yl]-5-methyl-3-pyridyl]-3-(2-methyl-7-tetrahydrofuran-2-yl-pyrazolo[1,5-a]pyrimidin-6-yl)urea] | ≤ 0.2
Cc1cc(NC(=O)Nc2cnc3ccnn3c2C2CCCC2)cnc1-c1noc(CCCCCC(=O)Nc2ccc3c(c2)CN(C2CCC(=O)NC2=O)C3=O)n1 (stereo not drawn) [Compound 61, 6-[3-[5-[(7-cyclopentylpyrazolo[1,5-a]pyrimidin-6-yl)carbamoylamino]-3-methyl-2-pyridyl]-1,2,4-oxadiazol-5-yl]-N-[2-(2,6-dioxo-3-piperidyl)-1-oxo-isoindolin-5-yl]hexanamide] | ≤ 0.2
Cc1cc(NC(=O)Nc2cnc3ccnn3c2C2CCCC2)cnc1-c1nnc(CCCCCC(=O)N2CCN(c3ccc4c(c3)CN(C3CCC(=O)NC3=O)C4=O)CC2)o1 (stereo not drawn) [Compound 5, 1-(7-cyclopentylpyrazolo[1,5-a]pyrimidin-6-yl)-3-[6-[5-[6-[4-[2-(2,6-dioxo-3-piperidyl)-1-oxo-isoindolin-5-yl]piperazin-1-yl]-6-oxo-hexyl]-1,3,4-oxadiazol-2-yl]-5-methyl-3-pyridyl]urea] | ≤ 0.2
O=C1CCC(N2Cc3cc(N4CCN(CCCCc5nc(-c6ncc(NC(=O)Nc7cnc8ccnn8c7C7CCCC7)cc6F)no5)CC4)ccc3C2=O)C(=O)N1 (stereo not drawn) [Compound 105, 1-(7-cyclopentylpyrazolo[1,5-a]pyrimidin-6-yl)-3-[6-[5-[4-[4-[2-(2,6-dioxo-3-piperidyl)-1-oxo-isoindolin-5-yl]piperazin-1-yl]butyl]-1,2,4-oxadiazol-3-yl]-5-fluoro-3-pyridyl]urea] | 0.2 to 0.5
O=C(CCOCCN1CCN(c2ccc3c(c2)CN(C2CCC(=O)NC2=O)C3=O)CC1)NCCNC(=O)C1CCCN1C(=O)Nc1cnc2ccnn2c1C1CCCC1 (stereo not drawn) [Compound 45, N1-(7-cyclopentylpyrazolo[1,5-a]pyrimidin-6-yl)-N2-[2-[3-[2-[4-[2-(2,6-dioxo-3-piperidyl)-1-oxo-isoindolin-5-yl]piperazin-1-yl]ethoxy]propanoylamino]ethyl]pyrrolidine-1,2-dicarboxamide] | > 5
O=C1CCC(N2Cc3cc(N4CCN(CCCCCc5nc(-c6ncc(NC(=O)Nc7cnc8ccnn8c7C7CCCC7)cc6F)no5)CC4)ccc3C2=O)C(=O)N1 (stereo not drawn) [Compound 97, 1-(7-cyclopentylpyrazolo[1,5-a]pyrimidin-6-yl)-3-[6-[5-[5-[4-[2-(2,6-dioxo-3-piperidyl)-1-oxo-isoindolin-5-yl]piperazin-1-yl]pentyl]-1,2,4-oxadiazol-3-yl]-5-fluoro-3-pyridyl]urea] | ≤ 0.2
